US20120027815A1, “USE OF PLASMA MEMBRANE CALCIUM ATPASE (PMCA) INHIBITORS TO INHIBIT SPERM MOBILITY” (priority 2003, published 2012)

Key:
PMCA = details: in vitro; cited from earlier work
normal sperm = test: Inhibition of sperm motility evaluated automatically with the CASA System 4.2; type: cell-based, mouse; details: Group C: normal sperm, 45 minutes after preparation, 37° C., 30 minutes with 20 μM inhibitor
Protocol: PMCA4-deficient male mice were sacrificed and the epididymis of each was prepared. These tissues were placed into 2 ml of a sperm preparation medium (“Sperm Preparation Medium” from the MediCult a/s Company, Möllehaven 12, 4040 Jyllinge, Denmark, comprising: Earle's balanced saline solution, sodium pyruvate, synthetic serum substitute, IIEPES [hydroxy-ethyl-piperazine ethanesulphonic acid], sodium bicarbonate, human serum albumen; penicillin 50,000 IU/liter and streptomycin 50 mg/litre; Kahn, J. A., Human Reproduction 8/9, pages 1414-1419, 1993; Lähteenmaki, A., Human Reproduction 10/1, pages 142-147, 1995) and a subsequent incision was made using a sterile scalpel. All functioning sperm were allowed 15 minutes to swim out of the epididymis. […] Afterwards, the remaining motile sperm were counted in relation to the non-motile ones.
The inhibition of sperm motility was further evaluated automatically using the CASA System 4.2 from the medeaLAB Company, Erlangen, Germany. […]
For the above automated experimental protocol, the incubation time (compared to manual counting) was shortened (only 30 minutes instead of 1 hour) and the software also recorded non-meaningful objects that were present in the sample, such objects could be readily excluded with manual counting.

sperm = test: Suppression of sperm mobility, manual counting of motile vs non-motile sperm; type: cell-based, mouse; details: incubated 1 hour at 37° C., 30% non-motile without inhibitor
Protocol: The inhibition of sperm function, i.e. the inhibition of sperm mobility, was determined as follows:
PMCA4-deficient male mice were sacrificed and the epididymis of each was prepared. These tissues were placed into 2 ml of a sperm preparation medium (“Sperm Preparation Medium” from the MediCult a/s Company, Möllehaven 12, 4040 Jyllinge, Denmark, comprising: Earle's balanced saline solution, sodium pyruvate, synthetic serum substitute, IIEPES [hydroxy-ethyl-piperazine ethanesulphonic acid], sodium bicarbonate, human serum albumen; penicillin 50,000 IU/liter and streptomycin 50 mg/litre; Kahn, J. A., Human Reproduction 8/9, pages 1414-1419, 1993; Lähteenmaki, A., Human Reproduction 10/1, pages 142-147, 1995) and a subsequent incision was made using a sterile scalpel. All functioning sperm were allowed 15 minutes to swim out of the epididymis. The supernatant containing these sperm was removed and mixed with 500 μl each of increasing concentrations of 5- and 6-carboxyeosindiacetate succinimidyl ester (CE). Following this step, the sperm were incubated for 1 hour at 37° C. CE diffuses into the sperm during this time; the ester is hydrolyzed on the intracellular level. Afterwards, the remaining motile sperm were counted in relation to the non-motile ones.

| Substance | Binding to PMCA and influence on PMCA function (PMCA) | locally mobile or non-motile (normal sperm; untreated Group A 27%) [%] | Progressive motility (normal sperm; untreated Group A 73%) [%] | Non-motile sperm (sperm; CE concentration 5 μM) [%] | Non-motile sperm (sperm; CE concentration 20 μM) [%] | Non-motile sperm (sperm; CE concentration 100 μM) [%] |
| --- | --- | --- | --- | --- | --- | --- |
| Caloxin 2A1: polypeptide with the amino acid sequence VSNSNWPSFPSSGGG, acts extracellularly on PMCA | binds extra-cellularly to PMCA and has an inhibitory influence on the function of the PMCA | – | – | – | – | – |
| 5- and 6-carboxyeosindiacetate succinimidyl ester | – | 78 | 22 | 90 | 95 | 97 |
